ChEMBL document CHEMBL1201862, “PubChem BioAssay data set” (2004)
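Tested at 5 concentrations; 48 h exposure; 96-well plates; endpoints linearly interpolated, else capped at highest concentration. GI50 is the concentration that inhibits growth by half.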 Activity calls are given as the source filed them. Cut-off read from the data, not from the text of the source: active = GI50 up to about 1.1 µM and inactive = higher.

Columns and labels:
Experiment in all cases: NCI anticancer screen, dose series, 48 h
[1] = system: A549
[2] = system: UACC-257
[3] = system: M19-MEL
[4] = system: OVCAR-8
[5] = system: RXF 393
[6] = system: HT-29
[7] = system: OVCAR-5
[8] = system: NCI-H460
[9] = system: 786-0
[10] = system: KM-20L2
[11] = system: NCI-H226
[12] = system: U-251
[13] = system: OVCAR-4
[14] = system: COLO 205
[15] = system: UACC-62
[16] = system: LOX IMVI
[17] = system: SF-268
[18] = system: UO-31
[19] = system: SNB-75
[20] = system: CAKI-1
[21] = system: HOP-62
[22] = system: IGROV-1
[23] = system: SF-295
[24] = system: HOP-18
[25] = system: DMS-114
[26] = system: SF-539
[27] = system: HL-60
[28] = system: K562
[29] = system: XF498
[30] = system: TK-10
[31] = system: SNB-78
[32] = system: SK-OV-3
[33] = system: KM12
[34] = system: SR
[35] = system: CCRF-CEM
[36] = system: SN12C
[37] = system: OVCAR-3
[38] = system: NCI-H23
[39] = system: HCT-116
[40] = system: SW-620
[41] = system: DMS-273
[42] = system: MOLT-4
[43] = system: ACHN
[44] = system: RPMI-8226
[45] = system: SK-MEL-28
[46] = system: EKVX
[47] = system: SK-MEL-5
[48] = system: SK-MEL-2
[49] = system: M14
[50] = system: SNB-19
[51] = system: NCI-H522
[52] = system: LXFL 529
[53] = system: HCT-15
[54] = system: DLD-1
[55] = system: HOP-92
[56] = system: Malme-3M
[57] = system: HCC 2998

Q: Which GI50 [1] does the source give for CC1=CC2CCC1(C)C/C2=C(/C)OC=O (stereo not drawn) here?
A: > 100 µM (inactive)

Q: What about the GI50 [2] of the same compound?
A: > 100 µM (inactive)

Q: What about the GI50 [3] of the same compound?
A: > 100 µM (inactive)

Q: And the GI50 [4]?
A: > 100 µM (inactive)

Q: What about the GI50 [5] of the same compound?
A: > 100 µM (inactive)

Q: What about the GI50 [6] of the same compound?
A: > 100 µM (inactive)

Q: What about the GI50 [7] of the same compound?
A: > 100 µM (inactive)

Q: And the GI50 [8]?
A: > 100 µM (inactive)

Q: What about the GI50 [9] of the same compound?
A: > 100 µM (inactive)

Q: And the GI50 [10]?
A: > 100 µM (inactive)

Q: What about the GI50 [11] of the same compound?
A: > 100 µM (inactive)

Q: And the GI50 [12]?
A: > 100 µM (inactive)

Q: And the GI50 [13]?
A: > 100 µM (inactive)

Q: What about the GI50 [14] of the same compound?
A: > 100 µM (inactive)

Q: And the GI50 [15]?
A: > 100 µM (inactive)

Q: What about the GI50 [16] of the same compound?
A: > 100 µM (inactive)

Q: What about the GI50 [17] of the same compound?
A: > 100 µM (inactive)

Q: What about the GI50 [18] of the same compound?
A: > 100 µM (inactive)

Q: And the GI50 [19]?
A: > 100 µM (inactive)

Q: What about the GI50 [20] of the same compound?
A: > 100 µM (inactive)

Q: What about the GI50 [21] of the same compound?
A: > 100 µM (inactive)

Q: What about the GI50 [22] of the same compound?
A: > 100 µM (inactive)

Q: And the GI50 [23]?
A: > 100 µM (inactive)

Q: What about the GI50 [24] of the same compound?
A: > 100 µM (inactive)

Q: And the GI50 [25]?
A: > 100 µM (inactive)

Q: And the GI50 [26]?
A: > 100 µM (inactive)

Q: What about the GI50 [27] of the same compound?
A: > 100 µM (inactive)

Q: What about the GI50 [28] of the same compound?
A: > 100 µM (inactive)

Q: And the GI50 [29]?
A: > 100 µM (inactive)

Q: And the GI50 [30]?
A: > 100 µM (inactive)

Q: And the GI50 [31]?
A: > 100 µM (inactive)

Q: And the GI50 [32]?
A: > 100 µM (inactive)

Q: What about the GI50 [33] of the same compound?
A: > 100 µM (inactive)

Q: What about the GI50 [34] of the same compound?
A: > 100 µM (inactive)

Q: And the GI50 [35]?
A: > 100 µM (inactive)

Q: What about the GI50 [36] of the same compound?
A: > 100 µM (inactive)

Q: What about the GI50 [37] of the same compound?
A: > 100 µM (inactive)

Q: And the GI50 [38]?
A: > 100 µM (inactive)

Q: And the GI50 [39]?
A: > 100 µM (inactive)

Q: And the GI50 [40]?
A: > 100 µM (inactive)

Q: What about the GI50 [41] of the same compound?
A: > 100 µM (inactive)

Q: What about the GI50 [42] of the same compound?
A: > 100 µM (inactive)

Q: And the GI50 [43]?
A: > 100 µM (inactive)

Q: What about the GI50 [44] of the same compound?
A: > 100 µM (inactive)

Q: What about the GI50 [45] of the same compound?
A: > 100 µM (inactive)

Q: And the GI50 [46]?
A: > 100 µM (inactive)

Q: And the GI50 [47]?
A: > 100 µM (inactive)

Q: And the GI50 [48]?
A: > 100 µM (inactive)

Q: What about the GI50 [49] of the same compound?
A: > 100 µM (inactive)

Q: And the GI50 [50]?
A: > 100 µM (inactive)

Q: What about the GI50 [51] of the same compound?
A: > 100 µM (inactive)

Q: What about the GI50 [52] of the same compound?
A: > 100 µM (inactive)

Q: And the GI50 [53]?
A: > 100 µM

Q: And the GI50 [54]?
A: > 100 µM (inactive)

Q: What about the GI50 [55] of the same compound?
A: > 100 µM (inactive)

Q: Which GI50 [1] does the source give for COc1cc(/C=C/c2csnn2)cc(OC)c1OC here?
A: > 100 µM (inactive)

Q: And the GI50 [2]?
A: > 100 µM (inactive)

Q: And the GI50 [3]?
A: > 100 µM (inactive)

Q: What about the GI50 [4] of the same compound?
A: > 100 µM (inactive)

Q: What about the GI50 [5] of the same compound?
A: > 100 µM (inactive)

Q: What about the GI50 [6] of the same compound?
A: > 100 µM (inactive)

Q: What about the GI50 [7] of the same compound?
A: > 100 µM (inactive)

Q: And the GI50 [8]?
A: > 100 µM (inactive)

Q: What about the GI50 [9] of the same compound?
A: > 100 µM (inactive)

Q: And the GI50 [11]?
A: > 100 µM (inactive)

Q: What about the GI50 [12] of the same compound?
A: > 100 µM (inactive)

Q: And the GI50 [13]?
A: > 100 µM (inactive)

Q: What about the GI50 [15] of the same compound?
A: > 100 µM (inactive)

Q: What about the GI50 [16] of the same compound?
A: > 100 µM (inactive)

Q: And the GI50 [17]?
A: 67 µM (inactive)

Q: What about the GI50 [18] of the same compound?
A: > 100 µM (inactive)

Q: And the GI50 [20]?
A: > 100 µM (inactive)

Q: What about the GI50 [21] of the same compound?
A: > 100 µM (inactive)

Q: And the GI50 [22]?
A: > 100 µM (inactive)

Q: And the GI50 [23]?
A: > 100 µM (inactive)

Q: And the GI50 [24]?
A: > 100 µM (inactive)

Q: What about the GI50 [25] of the same compound?
A: > 100 µM (inactive)

Q: What about the GI50 [26] of the same compound?
A: > 100 µM (inactive)

Q: And the GI50 [27]?
A: > 100 µM (inactive)

Q: And the GI50 [28]?
A: > 100 µM (inactive)

Q: And the GI50 [29]?
A: > 100 µM (inactive)

Q: And the GI50 [30]?
A: > 100 µM (inactive)

Q: What about the GI50 [56] of the same compound?
A: > 100 µM (inactive)

Q: What about the GI50 [31] of the same compound?
A: > 100 µM (inactive)

Q: What about the GI50 [32] of the same compound?
A: > 100 µM (inactive)

Q: And the GI50 [33]?
A: > 100 µM (inactive)

Q: What about the GI50 [34] of the same compound?
A: > 100 µM (inactive)

Q: And the GI50 [35]?
A: > 100 µM (inactive)

Q: And the GI50 [36]?
A: > 100 µM (inactive)

Q: And the GI50 [37]?
A: > 100 µM (inactive)

Q: What about the GI50 [38] of the same compound?
A: > 100 µM (inactive)

Q: What about the GI50 [39] of the same compound?
A: > 100 µM (inactive)

Q: What about the GI50 [40] of the same compound?
A: > 100 µM (inactive)

Q: What about the GI50 [42] of the same compound?
A: > 100 µM (inactive)

Q: What about the GI50 [43] of the same compound?
A: 78.3 µM (inactive)

Q: And the GI50 [57]?
A: > 100 µM (inactive)

Q: What about the GI50 [44] of the same compound?
A: > 100 µM (inactive)

Q: And the GI50 [45]?
A: > 100 µM (inactive)

Q: What about the GI50 [46] of the same compound?
A: 52.2 µM (inactive)

Q: And the GI50 [47]?
A: > 100 µM (inactive)

Q: And the GI50 [48]?
A: > 100 µM (inactive)

Q: And the GI50 [49]?
A: > 100 µM (inactive)

Q: What about the GI50 [50] of the same compound?
A: > 100 µM (inactive)

Q: What about the GI50 [51] of the same compound?
A: > 100 µM (inactive)

Q: And the GI50 [52]?
A: > 100 µM (inactive)

Q: What about the GI50 [53] of the same compound?
A: > 100 µM

Q: And the GI50 [54]?
A: > 100 µM (inactive)

Q: What about the GI50 [55] of the same compound?
A: 66.7 µM (inactive)
